Results reported in patent US10927117B2 (BEIGENE SWITZERLAND GMBH, priority 2016, dated 2021).

What was measured:
[1] = Nonclinical toxicity studies in rats
Source text: (§1) These studies took account the available regulatory guidance for preclinical development of anticancer drugs.

[2] = Nonclinical toxicity studies in dogs
Source text: as §1

TMD-8 DLBCL xenografts = assay: Efficacy study in TMD-8 xenograft model; format: in vivo, NOD/SCID mice
Procedure: Animals were pre-treated with cyclophosphamide (prepared in saline, 150 mg/kg i.p.) and disulfiram (prepared in 0.8% Tween 80 in saline, 125 mg/kg p.o., one hour after each dose of cyclophosphamide) once daily for two days Animals were then inoculated with TMD-8 cells 24 hours after the second dose of cyclophosphamide. On the day of implantation, cell culture medium was replaced with fresh medium. Four hours later, media was removed and cells were collected as described above. Cells were re-suspended in cold (4° C.) PBS and same volume of matrigel (BD, Cat #356237) was added to give a final concentration of 2.5×10^7 cells/ml. Resuspended cells were placed on ice prior to inoculation The right axilla region of each mouse was cleaned with 75% ethanol prior to cell inoculation. Each animal was injected subcutaneously with 5×10^6 cells in 200 μl of cell suspension in the right front flank via a 26-gauge needle.
For in vivo efficacy studies, starting from day 3 after cell inoculation, animals were randomly assigned into desired number of groups with 10 mice per group. […] Treatments were administered by oral gavage (p.o.) in a volume of 10 ml/kg body weight. Body weight was assessed immediately before dosing and volume dosed was adjusted accordingly. Tumor volume was measured twice weekly in two dimensions using a calliper (measureable from day 11 post inoculation in this study). Tumor volume was calculated using the formula: V=0.5×(a×b^2) where a and b are the long and short diameters of the tumor, respectively. Statistical analysis was conducted using the student T-test. P<0.05 was considered statistically significant. One individual was responsible for tumor measurement for the entire duration of the study. Body weights were also recorded twice weekly. Mice were also being monitored daily for clinical signs of toxicity for the duration of the study.

[3] = test system: Rec-1 cells (MCL cell line); assay: Tumor cell proliferation, CellTiter-Glo, Rec-1; format: cell-based; details: Homo sapiens, Rec1, 144 h, Rec-1 cell line, 6-day exposure, mean of 3 independent assays, read-out: Potency IC50
Procedure: 3 MCL cell lines (Rec-1, Mino and JEKO-1) and an ABC type diffuse large B-cell lymphoma cell line (TMD8) were used in this study. Cell lines were maintained in RPMI-1640 supplemented with 10% fetal bovine serum/FBS (Thermo Scientific); 100 units/ml penicillin (Gibco) and 0.1 mg/ml streptomycin (Gibco) and kept at 37° C. in a humidified atmosphere of 5% CO2 in air. Cell lines were reinstated from frozen stocks that were laid down within 30 passages from the original cells purchased.
The growth-inhibitory activity of compounds in Rec-1, Mino, JEKO-1 and TMD-8 cells was determined using CellTiter-Glo luminescent cell viability assay (Promega). The number of cells seeded per well of a 96-well plate was optimized for each cell line to ensure logarithmic growth over 6 days treatment period. Cells were treated in triplicate with a 10-point dilution series. […] Mixture was mixed on an orbital shaker for 2 minutes to allow cell lysis, followed by 10 minutes incubation at room temperature to allow development and stabilization of luminescent signal, which corresponded to quantity of ATP and thus the quantity of metabolically active cells. Luminescent signal was measured using PHERAstar FS reader (BMG Labtech). IC50 values for cell viability were determined with GraphPad Prism software and were the mean of 3 independent assays.

[4] = test system: systemic REC-1 MCL engrafts; assay: Efficacy study in systemic REC-1 xenograft model; format: in vivo, NOD/SCID mice; details: different dose levels BID p.o., 71 days
Procedure: Animals were pre-treated with cyclophosphamide (prepared in saline, 150 mpk i.p.) and disulfiram (prepared in 0.8% TW-80 in saline, 125 mpk p.o., one hour after each dose of cyclophosphamide) once daily for two days. Animals were then inoculated with REC-1 cells 24 hours after the second dose of cyclophosphamide. On the day of implantation, cell culture medium was replaced with fresh medium. Four hours later, media was removed and cells were collected as described above. Cells were re-suspended in cold (4° C.) PBS to give a final concentration of 1×10^8 cells/ml. Resuspended cells were placed on ice prior to implantation. Each animal was injected intravenously via tail vein with 1×10^7 cells in […] of cell suspension.
For in vivo efficacy studies, starting from day 8 after cell inoculation, animals were randomly assigned into desired number of groups with 10 mice per group. […] Body weight was assessed immediately before dosing and volume dosed was adjusted accordingly. Body weight was recorded twice weekly (changed to three times per week from day 33). […] In the case of severe toxic effect, such as loss of movement, mice were euthanized and scored as death.
For Data Analysis: Survival analysis was performed by Kaplan-Meier method. […] For each group, median survival time (MST), range of survival time (RST) with 95% confidence interval and increase in life-span (ILS) were calculated. […]

Row | SMILES | overall tolerance and severe toxicities compared with ibrutinib ([1]; rat single and repeat dose toxicity studies up to 28 days) | overall tolerance and severe toxicities compared with ibrutinib ([2]; dog single and repeat dose toxicity studies up to 28 days) | test article-related mortality ([1]; rat, in vivo) | changes in clinical chemistry or coagulation ([1]; rats) | test article-related mortality ([2]; dog, in vivo) | changes in clinical chemistry or coagulation ([2]; dogs) | impact on animal body weight (TMD-8 DLBCL xenografts; all treatment groups) | anti-tumor effects (TMD-8 DLBCL xenografts; different dose levels BID p.o., 39 days) | anti-tumor activity at lowest dose tested (TMD-8 DLBCL xenografts; lowest dose tested, BID p.o.) | IC50 [3] [nM] | anti-tumor activity (overall survival) [4]
1 | C=CC(=O)N1CCC([C@@H]2CCNc3c(C(N)=O)c(-c4ccc(Oc5ccccc5)cc4)nn32)CC1 [Compound 1, (S)-7-(1-acryloylpiperidin-4-yl)-2-(4-phenoxyphenyl)-4,5,6,7-tetra-hydropyrazolo[1,5-a]pyrimidine-3-carboxamide] | safer than ibrutinib | safer than ibrutinib | – | – | – | – | – | – | – | – | –
2 | C=CC(=O)N1CCC([C@@H]2CCNc3c(C(N)=O)c(-c4ccc(Oc5ccccc5)cc4)nn32)CC1 [Crystalline Form A, (S)-7-(1-acryloylpiperidin-4-yl)-2-(4-phenoxyphenyl)-4,5,6,7-tetra-hydropyrazolo[1,5-a]pyrimidine-3-carboxamide] | – | – | No test article-related mortality | No toxicologically significant changes | No test article-related mortality | No toxicologically significant changes | no significant impact on animal body weight | dose-dependent anti-tumor effects | strong anti-tumor activity | 0.36 | dose-dependent anti-tumor activity
